Experimental data: article PMC2263054, “Functional evolution of the vitamin D and pregnane X receptors” (BMC Evolutionary Biology, 2007)
“Also recorded” adds a separate entry of the source. Counter-ions that a name gives are not always drawn. Like-named read-outs stand apart in the source and are kept apart here.

What was measured:
Assay type in all cases: cell-based
[1] = biological target: T1, Sea lamprey VDR (Petromyzon marinus, UniProt Q7ZZY9)
T1 sequence (Q7ZZY9 92-406): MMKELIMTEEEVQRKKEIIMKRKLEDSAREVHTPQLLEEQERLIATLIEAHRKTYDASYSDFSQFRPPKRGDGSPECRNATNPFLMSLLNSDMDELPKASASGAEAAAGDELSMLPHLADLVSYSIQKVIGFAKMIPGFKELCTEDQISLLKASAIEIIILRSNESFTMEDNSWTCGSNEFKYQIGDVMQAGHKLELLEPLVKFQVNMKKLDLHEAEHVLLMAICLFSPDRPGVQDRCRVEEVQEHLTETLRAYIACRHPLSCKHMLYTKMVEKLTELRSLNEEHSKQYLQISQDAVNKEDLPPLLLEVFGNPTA

[2] = biological target: T2, Zebrafish VDR (Danio rerio, UniProt Q9PTN2); assay: luciferase reporter transactivation assay in HepG2-NTCP cells, GAL4/zfVDR LBD chimera with tk-UAS-Luc; conditions: screening for activators, at least three concentrations of each drug
T2 sequence (Q9PTN2 121-453): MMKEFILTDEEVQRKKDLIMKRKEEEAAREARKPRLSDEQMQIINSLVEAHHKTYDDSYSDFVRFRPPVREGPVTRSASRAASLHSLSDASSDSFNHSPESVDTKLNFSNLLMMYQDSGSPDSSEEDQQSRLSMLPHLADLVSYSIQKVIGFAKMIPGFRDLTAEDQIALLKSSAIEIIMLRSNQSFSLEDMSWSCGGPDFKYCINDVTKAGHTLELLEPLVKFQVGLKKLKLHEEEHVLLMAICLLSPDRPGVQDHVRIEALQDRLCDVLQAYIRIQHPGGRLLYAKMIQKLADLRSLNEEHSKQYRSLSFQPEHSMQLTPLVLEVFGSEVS

[3] = biological target: T3, Xenopus laevis VDR (Xenopus laevis, UniProt O13124); assay: luciferase reporter transactivation assay in HepG2-NTCP cells, GAL4/xlVDR LBD chimera with tk-UAS-Luc; conditions: screening for activators, at least three concentrations of each drug
T3 sequence (O13124 90-422): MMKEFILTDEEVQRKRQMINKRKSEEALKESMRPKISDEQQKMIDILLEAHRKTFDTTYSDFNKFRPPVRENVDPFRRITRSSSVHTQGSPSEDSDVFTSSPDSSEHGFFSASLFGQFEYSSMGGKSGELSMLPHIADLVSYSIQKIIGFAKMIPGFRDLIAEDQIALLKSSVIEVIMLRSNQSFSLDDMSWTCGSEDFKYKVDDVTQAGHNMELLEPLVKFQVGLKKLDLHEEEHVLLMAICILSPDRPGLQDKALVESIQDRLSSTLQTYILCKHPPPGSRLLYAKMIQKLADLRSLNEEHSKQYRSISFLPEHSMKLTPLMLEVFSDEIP

[4] = screening for activators, at least three concentrations of each drug

Row | Compound | Effect on sea lamprey VDR [1, 4] | Effect on zebrafish VDR [2] | Effect on Xenopus laevis VDR [3] | Effect on sea lamprey VDR [1]
1 | C[C@]12CC[C@H]3[C@@H](CCC4=CC(=O)CC[C@@]43C)[C@@H]1CC[C@@H]2C(=O)CO [Cortexone (4-Pregnen-21-ol-3,20-dione), 4-Pregnen-21-ol-3,20-dione] | No effect | No effect | No effect | –
2 | C[C@]12CCC(=O)C=C1CC[C@@H]1[C@@H]2[C@@H](O)C[C@@]2(C)[C@H]1CC[C@]2(O)C(=O)CO [Cortisol] | No effect | No effect | No effect | –
3 | C[C@]12CCC(=O)C=C1CC[C@@H]1[C@@H]2C(=O)C[C@@]2(C)[C@H]1CC[C@]2(O)C(=O)CO [Cortisone] | – | No effect | No effect | No effect
4 | C[C@]12CC[C@@H](O)C[C@H]1CC[C@@H]1[C@@H]2[C@@H](O)C[C@@]2(C)[C@H]1CC[C@]2(O)[C@@H](O)CO [Cortol] | No effect | No effect | No effect | –
5 | C[C@]12CC[C@@H](O)C[C@H]1CC[C@@H]1[C@@H]2C(=O)C[C@@]2(C)[C@H]1CC[C@]2(O)[C@@H](O)CO [Cortolone] | No effect | No effect | No effect | –
6 | CC(C)=CCC[C@@H](C)[C@H]1CC[C@@]2(C)[C@@H]3CC[C@H]4C(C)(C)[C@@H](O)CC[C@@]45C[C@@]35CC[C@]12C [Cycloartenol] | No effect | No effect | No effect | –
7 | C[C@]12CC[C@H](OS(=O)(=O)O)CC1=CC[C@@H]1[C@@H]2CC[C@]2(C)C(=O)CC[C@@H]12 [DHEA sulfate] | No effect | No effect | No effect | –
8 | C[C@]12CC[C@H](O)CC1=CC[C@@H]1[C@@H]2CC[C@]2(C)C(=O)CC[C@@H]12 [DHEA] | No effect | No effect | No effect | –
9 | C[C@H](CCC(=O)O)[C@H]1CC[C@H]2[C@@H]3CC[C@@H]4C[C@H](O)CC[C@]4(C)[C@H]3C[C@H](O)[C@]12C [Deoxycholic acid] | No effect | No effect | No effect | –
10 | C[C@]12CCC(=O)C[C@@H]1CC[C@@H]1[C@@H]2CC[C@]2(C)[C@@H](O)CC[C@@H]12 [Dihydrotestosterone] | No effect | No effect | No effect | –
11 | CC/C=C\C/C=C\C/C=C\C/C=C\C/C=C\C/C=C\CCC(=O)O [Docosa-4Z,7Z,10Z,13Z,16Z,19Z-hexanoic acid] | No effect | No effect | No effect | –
12 | C[C@H]([C@H](O)CCC(C)(C)O)[C@H]1CC[C@@]2(O)C3=CC(=O)[C@@H]4C[C@@H](O)[C@@H](O)C[C@]4(C)[C@H]3CC[C@]12C [Ecdysone] | No effect | No effect | No effect | –
13 | C[C@]12CC[C@@H]3c4ccc(O)cc4CC[C@H]3[C@@H]1[C@@H](O)[C@@H](O)[C@@H]2O [Estetrol] | No effect | No effect | No effect | –
14 | C[C@]12CC[C@@H]3c4ccc(O[C@@H]5O[C@H](C(=O)O)[C@@H](O)[C@H](O)[C@H]5O)cc4CC[C@H]3[C@@H]1CC[C@@H]2O [Estradiol 3-glucuronide] | No effect | No effect | No effect | –
15 | C[C@]12CC[C@@H]3c4ccc(OS(=O)(=O)O)cc4CC[C@H]3[C@@H]1CC[C@@H]2O [Estradiol 3-sulfate] | No effect | No effect | No effect | –
16 | C[C@]12CC[C@@H]3c4ccc(O)cc4CC[C@H]3[C@@H]1C[C@@H](O)[C@@H]2O [Estriol] | No effect | No effect | No effect | –
17 | C[C@]12CC[C@@H]3c4ccc(OS(=O)(=O)O)cc4CC[C@H]3[C@@H]1CCC2=O [Estrone 3-sulfate] | No effect | No effect | No effect | –

Row | Compound | Effect on sea lamprey VDR [1, 4] | Effect on zebrafish VDR [2] | Effect on Xenopus laevis VDR [3] | Effect on sea lamprey VDR [1]
18 | C#C[C@]1(O)CC[C@H]2[C@@H]3CCc4cc(O)ccc4[C@H]3CC[C@@]21C [Ethinyl estradiol] | No effect | No effect | No effect | –
19 | C[C@]12CC[C@@H](O)C[C@H]1CC[C@@H]1[C@@H]2CC[C@]2(C)C(=O)CC[C@@H]12 [Etiocholanolone] | No effect | No effect | No effect | –
20 | CC(C)=CCC/C(C)=C/CC/C(C)=C/CO [Farnesol] | No effect | No effect | No effect | –
21 | CC(C)=CCC/C(C)=C/CC/C(C)=C/CSCC(=O)O [Farnesylthioacetic acid] | No effect | No effect | No effect | –
22 | CC(C(=O)O)c1ccc(-c2ccccc2)c(F)c1 (stereo not drawn) [Flurbiprofen] | No effect | No effect | No effect | –
23 | O=C(O)Cc1cccc(OCCCN(Cc2cccc(C(F)(F)F)c2Cl)CC(c2ccccc2)c2ccccc2)c1 [GW3965] | None of these three VDRs were activated; also recorded: No effect | None of these three VDRs were activated; also recorded: No effect | None of these three VDRs were activated; also recorded: No effect | –
24 | CC(C)c1onc(-c2c(Cl)cccc2Cl)c1COc1ccc(/C=C/c2cccc(C(=O)O)c2)c(Cl)c1 [GW4064] | None of these three VDRs were activated | None of these three VDRs were activated | None of these three VDRs were activated | –
25 | CC(C)(Sc1ccc(CCN(CCCCC2CCCCC2)C(=O)NC2CCCCC2)cc1)C(=O)O [GW 7647] | No effect | No effect | No effect | –
26 | O=C(Nc1ccccc1)c1cc([N+](=O)[O-])ccc1Cl [GW 9662] | No effect | No effect | No effect | –
27 | Cc1ccc(C)c(OCCCC(C)(C)C(=O)O)c1 [Gemfibrozil] | No effect | No effect | No effect | –
28 | CC(C)=CCC/C(C)=C/CC/C(C)=C/CC/C(C)=C/CO [Geranygeraniol] | No effect | No effect | No effect | –
29 | CC(CCC(=O)NCC(=O)O)C1CCC2C3C(O)CC4CC(O)CCC4(C)C3CCC12C (stereo not drawn) [Glycochenodeoxycholic acid] | No effect | No effect | No effect | –
30 | C[C@H](CCC(=O)NCC(=O)O)[C@H]1CC[C@H]2[C@@H]3[C@H](O)C[C@@H]4C[C@H](O)CC[C@]4(C)[C@H]3C[C@H](O)[C@]12C.O [Glycocholic acid hydrate] | No effect | No effect | No effect | –
31 | C[C@H](CCC(=O)NCC(=O)O)[C@H]1CC[C@H]2[C@@H]3CC[C@@H]4C[C@H](O)CC[C@]4(C)[C@H]3C[C@H](O)[C@]12C.O [Glycodeoxycholic acid monohydrate] | No effect | No effect | No effect | –
32 | CC(CCC(=O)NCC(=O)O)C1CCC2C3CCC4CC(O)CCC4(C)C3CC(O)C12C (stereo not drawn) [Glycodeoxycholic acid] | No effect | No effect | No effect | –
33 | C[C@H](CCC(=O)NCC(=O)O)[C@H]1CC[C@H]2[C@@H]3CC[C@@H]4C[C@H](OS(=O)(=O)O)CC[C@]4(C)[C@H]3CC[C@]12C [Glycolithocholic acid 3-sulfate] | No effect | No effect | No effect | –
